From ChEMBL document CHEMBL5537115, “New broad-spectrum and potent antibacterial agents with dual-targeting mechanism: Promoting FtsZ polymerization and disrupting bacterial membranes” (Eur J Med Chem, 2024)
Active and inactive are the calls of the source. The rule behind the calls is not given here.

Assays:
Staphylococcus aureus [1] = assay: Induction of resistance development in Staphylococcus aureus ATCC25923 assessed as fold increase in MIC at 0.5 times MIC measured after 32 days by multi-passage resistance assay relative to control; assay type: functional; conditions: time 32.0 day
Staphylococcus aureus [2] = assay: Induction of membrane potential depolarization in Staphylococcus aureus ATCC25923 measured after 20 mins by diSC35 dye based spectroscopy; assay type: functional, organism-based
Staphylococcus aureus [3] = assay: Inhibition of biofilm formation of Staphylococcus aureus ATCC25923 incubated for 20 hrs by crystal violet staining based analysis; assay type: functional, organism-based
Acinetobacter baumannii [4] = assay: Selectivity ratio of MBC for Acinetobacter baumannii ATCC19606 to MIC for Acinetobacter baumannii ATCC19606; assay type: functional
Staphylococcus aureus [5] = assay: Antibacterial activity against Staphylococcus aureus clinical isolate incubated for 18 to 24 hrs; assay type: functional; conditions: time 18-24 hrs
Bacillus subtilis [6] = assay: Antibacterial activity against penicillin-susceptible Bacillus subtilis ATCC9372 incubated for 18 to 24 hrs; assay type: functional; conditions: time 18-24 hrs
Klebsiella pneumoniae = assay: Antibacterial activity against Klebsiella pneumoniae ATCC BAA-1902 assessed as bacterial growth inhibition incubated for 20 hrs by CLSI based broth microdilution method; assay type: functional
[7] = target: T1, Cell division protein FtsZ (Bacillus subtilis) (UniProt A5Z1V5); assay: Induction of FtsZ polymerization in Bacillus subtilis preincubated for 10 mins followed by GTP addition measured upto 30 mins by absorbance based assay; conditions: dose 2.5-10 µg/ml, time 40.0 min
T1 sequence (whole entry): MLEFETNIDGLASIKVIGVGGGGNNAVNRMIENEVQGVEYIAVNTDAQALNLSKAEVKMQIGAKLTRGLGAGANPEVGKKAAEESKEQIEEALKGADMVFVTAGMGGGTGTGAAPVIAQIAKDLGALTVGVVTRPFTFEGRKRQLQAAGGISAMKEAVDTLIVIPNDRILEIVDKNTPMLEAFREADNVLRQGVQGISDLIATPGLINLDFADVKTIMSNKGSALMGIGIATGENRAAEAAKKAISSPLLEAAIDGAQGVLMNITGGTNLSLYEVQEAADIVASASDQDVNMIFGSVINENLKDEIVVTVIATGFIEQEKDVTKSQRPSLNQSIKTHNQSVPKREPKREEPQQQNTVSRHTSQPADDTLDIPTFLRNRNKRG

Staphylococcus aureus [8] = assay: Antibacterial activity against penicillin-resistant Staphylococcus aureus ATCC31007 assessed as bacterial growth inhibition incubated for 20 hrs by CLSI based broth microdilution method; assay type: functional
Enterococcus faecium [9] = assay: Antibacterial activity against vancomycin-resistant Enterococcus faecium ATCC51559 assessed as bacterial growth inhibition incubated for 20 hrs by CLSI based broth microdilution method; assay type: functional
Staphylococcus aureus [10] = assay: Antibacterial activity against erythromycin-susceptible Staphylococcus aureus ATCC25923 incubated for 18 to 24 hrs; assay type: functional; conditions: time 18-24 hrs
Streptococcus pyogenes [11] = assay: Antibacterial activity against erythromycin-susceptible Streptococcus pyogenes 1 assessed as bacterial growth inhibition incubated for 20 hrs by CLSI based broth microdilution method; assay type: functional
Acinetobacter baumannii [12] = assay: Antibacterial activity against Acinetobacter baumannii ATCC19606 assessed as bacterial growth inhibition incubated for 20 hrs by CLSI based broth microdilution method; assay type: functional
[13] = Hemolytic activity in mouse erythrocytes at 128 ug/ml incubated for 1 hr by absorbance based assay; assay type: toxicity, cell-based, Erythrocyte; conditions: dose 128 µg/ml, read-out: Activity
[14] = target: T1, Cell division protein FtsZ (Bacillus subtilis); assay: Induction of FtsZ polymerization in Bacillus subtilis assessed as bundling of FtsZ protofilaments at 10 ug/ml preincubated for 15 mins followed by GTP addition measured after 10 mins by TEM analysis; conditions: dose 10.0 µg/ml, time 25.0 min
Escherichia coli [15] = assay: Antibacterial activity against wild-type Escherichia coli BW25113 assessed as bacterial growth inhibition incubated for 20 hrs by CLSI based broth microdilution method; assay type: functional
Staphylococcus aureus [16] = assay: Antibacterial activity against methicillin-resistant Staphylococcus aureus ATCC43300 assessed as bacterial growth inhibition incubated for 20 hrs by CLSI based broth microdilution method; assay type: functional
Staphylococcus aureus [17] = assay: Disruption of inner membrane in Staphylococcus aureus ATCC25923 by PI staining based analysis; assay type: functional, organism-based; conditions: time 12.0 min, TDE = time-dependent effect
Bacillus pumilus = assay: Antibacterial activity against penicillin-susceptible Bacillus pumilus CMCC63202 assessed as bacterial growth inhibition incubated for 20 hrs by CLSI based broth microdilution method; assay type: functional
Staphylococcus aureus [18] = assay: Disruption of inner membrane in Staphylococcus aureus ATCC25923 measured after 12 mins by PI staining based analysis; assay type: functional, organism-based
Bacillus subtilis [19] = assay: Induction of morphological change in Bacillus subtilis ATCC9372 assessed as increase in cell length at 0.5 times MIC by phase contrast microscopy; assay type: functional, organism-based
Staphylococcus aureus [20] = assay: Antibacterial activity against erythromycin-susceptible Staphylococcus aureus ATCC25923 assessed as bacterial growth inhibition incubated for 20 hrs by CLSI based broth microdilution method; assay type: functional
Staphylococcus aureus [21] = assay: Induction of morphological change in Staphylococcus aureus ATCC25923 assessed as loss of bacterial membrane integrity at 16 times MIC incubated for 2 hrs by TEM analysis; assay type: functional, organism-based
Bacillus subtilis [22] = assay: Antibacterial activity against penicillin-susceptible Bacillus subtilis ATCC9372 assessed as bacterial growth inhibition incubated for 20 hrs by CLSI based broth microdilution method; assay type: functional
Enterococcus faecalis [23] = assay: Antibacterial activity against vancomycin-resistant Enterococcus faecalis ATCC51299 assessed as bacterial growth inhibition incubated for 20 hrs by CLSI based broth microdilution method; assay type: functional
Staphylococcus aureus [24] = assay: Antibacterial activity against methicillin-resistant Staphylococcus aureus ATCC43300 incubated for 18 to 20 hrs; assay type: functional; conditions: time 18-20 hrs
[25] = target: T1, Cell division protein FtsZ (Bacillus subtilis); assay: Induction of FtsZ polymerization in Bacillus subtilis at 2.5 to 10 ug/ml preincubated with compound followed by GTP addition by absorbance based assay; conditions: dose 2.5-10 µg/ml, time 40.0 min, TDE = time-dependent effect
Staphylococcus aureus [26] = assay: Inhibition of biofilm formation of Staphylococcus aureus ATCC25923 at 0.5 ug/ml incubated for 20 hrs by crystal violet staining based analysis relative to control; assay type: functional
Staphylococcus aureus [27] = assay: Selectivity ratio of MBC for Staphylococcus aureus clinical isolate to MIC for Staphylococcus aureus clinical isolate; assay type: functional
Staphylococcus aureus [28] = assay: Induction of morphological change in Staphylococcus aureus ATCC25923 assessed as leakage of cell contents at 16 times MIC incubated for 2 hrs by TEM analysis; assay type: functional, organism-based
Staphylococcus aureus [29] = assay: Selectivity ratio of MBC for erythromycin-susceptible Staphylococcus aureus ATCC25923 to MIC for erythromycin-susceptible Staphylococcus aureus ATCC25923; assay type: functional
Staphylococcus aureus [30] = assay: Antibacterial activity against Staphylococcus aureus clinical isolate assessed as bacterial growth inhibition incubated for 20 hrs by CLSI based broth microdilution method; assay type: functional
Enterococcus faecium [31] = assay: Antibacterial activity against vancomycin-susceptible Enterococcus faecium ATCC19434 assessed as bacterial growth inhibition incubated for 20 hrs by CLSI based broth microdilution method; assay type: functional
Escherichia coli [32] = assay: Antibacterial activity against penicillin-susceptible Escherichia coli ATCC25922 assessed as bacterial growth inhibition incubated for 20 hrs by CLSI based broth microdilution method; assay type: functional
Acinetobacter baumannii [33] = assay: Antibacterial activity against Acinetobacter baumannii ATCC19606 incubated for 18 to 24 hrs; assay type: functional; conditions: time 18-24 hrs
[34] = test system: Staphylococcus epidermidis; assay: Antibacterial activity against penicillin-resistant Staphylococcus epidermidis clinical isolate assessed as bacterial growth inhibition incubated for 20 hrs by CLSI based broth microdilution method; assay type: functional
Bacillus subtilis [35] = assay: Selectivity ratio of MBC for penicillin-susceptible Bacillus subtilis ATCC9372 to MIC for penicillin-susceptible Bacillus subtilis ATCC9372; assay type: functional
Streptococcus pyogenes [36] = assay: Antibacterial activity against erythromycin-resistant Streptococcus pyogenes 2 clinical isolate assessed as bacterial growth inhibition incubated for 20 hrs by CLSI based broth microdilution method; assay type: functional
Staphylococcus aureus [37] = assay: Selectivity ratio of MBC for methicillin-resistant Staphylococcus aureus ATCC43300 to MIC for methicillin-resistant Staphylococcus aureus ATCC43300; assay type: functional
Enterococcus faecalis [38] = assay: Antibacterial activity against vancomycin-susceptible Enterococcus faecalis ATCC29212 assessed as bacterial growth inhibition incubated for 20 hrs by CLSI based broth microdilution method; assay type: functional

For Cc1ccccc1-c1c[n+](C)c(-c2ccc(C(C)(C)C)cc2)cc1/C=C/c1ccc(O)cc1.[I-], the fold change (FC) (Staphylococcus aureus [1]) was 2, the Activity (Staphylococcus aureus [2]) was “Dose-Dependent Effect” and the inhibition (Staphylococcus aureus [3]) was “Dose-Dependent Effect”. For the same compound, the Ratio (Acinetobacter baumannii [4]) was 4, the MBC (Staphylococcus aureus [5]) was 4 µg/mL and the MBC (Bacillus subtilis [6]) was 2 µg/mL. The MIC (Klebsiella pneumoniae) was > 64 µg/mL, the Activity [7] was “Dose-Dependent Effect” and the MIC (Staphylococcus aureus [8]) was 1 µg/mL. For the same compound, the MIC (Enterococcus faecium [9]) was 2 µg/mL, the MBC (Staphylococcus aureus [10]) was 2 µg/mL and the MIC (Streptococcus pyogenes [11]) was 1 µg/mL. The MIC (Acinetobacter baumannii [12]) was 4 µg/mL, the hemolysis at 1 h, 128 ug/ml [13] was 7.59% and the Activity [14] was “Active”. For the same compound, the MIC (Escherichia coli [15]) was > 64 µg/mL, the MIC (Staphylococcus aureus [16]) was 0.125 µg/mL and the Activity (Staphylococcus aureus [17]) was “Tde”. The MIC (Bacillus pumilus) was 1 µg/mL, the Activity (Staphylococcus aureus [18]) was “Dose-Dependent Effect” and the Activity (Bacillus subtilis [19]) was “Active”. The MIC (Staphylococcus aureus [20]) was 0.062 µg/mL, the Activity (Staphylococcus aureus [21]) was “Active” and the MIC (Bacillus subtilis [22]) was 0.5 µg/mL. The MIC (Enterococcus faecalis [23]) was 2 µg/mL, the MBC (Staphylococcus aureus [24]) was 2 µg/mL and the Activity [25] was “Tde”. For the same compound, the inhibition at 0.5 µg/mL (Staphylococcus aureus [26]) was 39%, the Ratio (Staphylococcus aureus [27]) was 8 and the Activity (Staphylococcus aureus [28]) was “Active”. The Ratio (Staphylococcus aureus [29]) was 32, the MIC (Staphylococcus aureus [30]) was 0.125 µg/mL and the MIC (Enterococcus faecium [31]) was 2 µg/mL. The MIC (Escherichia coli [32]) was 32 µg/mL, the MBC (Acinetobacter baumannii [33]) was 16 µg/mL and the MIC [34] was 2 µg/mL. For the same compound, the Ratio (Bacillus subtilis [35]) was 4, the MIC (Streptococcus pyogenes [36]) was 2 µg/mL and the Ratio (Staphylococcus aureus [37]) was 16. The MIC (Enterococcus faecalis [38]) was 2 µg/mL.
